Experimental data taken from patent US20260347335A1, “PESTICIDALLY ACTIVE CYCLIC AMINE COMPOUNDS” (SYNGENTA CROP PROTECTION AG, priority 2022, published 2026).

Test system: Tetranychus urticae (Two-Spotted Spider Mite)
Assay: Example B1: Tetranychus urticae (Two-Spotted Spider Mite): Feeding/Contact Activity
Format: in vivo
Settings: foliar, 192 h, application rate of 200 ppm, 8 days after infestation, bean leaf discs on agar, mites of mixed ages, read-out: mortality on mixed population (mobile stages)
Description: Example B1: Tetranychus urticae (Two-Spotted Spider Mite): Feeding/Contact Activity
Bean leaf discs on agar in 24-well microtiter plates were sprayed with aqueous test solutions prepared from 10,000 ppm DMSO stock solutions. After drying the leaf discs were infested with a mite population of mixed ages. The samples were assessed for mortality on mixed population (mobile stages) 8 days after infestation.

Row | SMILES | mortality at 200 ppm [%]
1 | CC(C)(NS(C)(=O)=O)C1CCN(C(=O)c2cc(C#N)c(OCc3ccc4c(c3)OC(F)(F)O4)nc2C(F)F)CC1 [Compound P1.1, N-[1-[1-[5-cyano-6-[(2,2-difluoro-1,3-benzodioxol-5-yl)methoxy]-2-(difluoromethyl)pyridine-3-carbonyl]-4-piperidyl]-1-methyl-ethyl]methanesulfonamide] | ≥ 80
2 | CC(=O)NC1(C2CCN(C(=O)c3cc(C#N)c(OCc4ccc5c(c4)OC(F)(F)O5)nc3C(F)F)CC2)CC1 [Compound P1.6, N-[1-[1-[5-cyano-6-[(2,2-difluoro-1,3-benzodioxol-5-yl)methoxy]-2-(difluoromethyl)pyridine-3-carbonyl]-4-piperidyl]cyclopropyl]acetamide] | ≥ 80
3 | CC(=O)NC1(C2CCN(C(=O)c3cc(C#N)c(OCc4cc(Cl)ccc4F)nc3C(F)F)CC2)CC1 [Compound P1.18, N-[1-[1-[6-[(5-chloro-2-fluoro-phenyl)methoxy]-5-cyano-2-(difluoromethyl)pyridine-3-carbonyl]-4-piperidyl]cyclopropyl]acetamide] | ≥ 80
